# Laboratory results from the supplement of paper PMC10307832.
# Tests used:
# Assay in all cases: relative viability (nuclei count vs DMSO), 5 days (fraction); higher = more cells survive
# [1] = compound: COc1cc2ncn(-c3cc(OCc4ccccc4C(F)(F)F)c(C(N)=O)s3)c2cc1OC + CC(C)C[C@H](NC(=O)[C@H](Cc1ccccc1)NC(=O)c1cnccn1)B(O)O [Bortezomib] (partner 0.002 µM)
# In short: (§1)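 Nuclei were stained with Hoechst during a one-step fixation (final 0.05% Triton X-100, 1% formaldehyde, 1 ug/ml Hoechst) carried out 5 days after dosing, then counted on 4× images. The cells, lung cancer lines in 1536-well plates, had been dosed by pin tool the day after seeding with one drug alone or a fixed anchor-drug dose plus five library-drug doses (not always all listed) in √10 steps. Relative viability is the nuclei count in treated wells divided by that in vehicle wells, and each value is the median of duplicate plates.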
# [2] = compound: COc1cc2ncn(-c3cc(OCc4ccccc4C(F)(F)F)c(C(N)=O)s3)c2cc1OC + Cc1nc(NC(=O)N2CCC[C@H]2C(N)=O)sc1-c1ccnc(C(C)(C)C(F)(F)F)c1 [Alpelisib] (partner 2 µM)
# In short: as §1
# [3] = compound: COc1cc2ncn(-c3cc(OCc4ccccc4C(F)(F)F)c(C(N)=O)s3)c2cc1OC + Nc1nc2[nH]cc(CCc3ccc(C(=O)N[C@@H](CCC(=O)O)C(=O)O)cc3)c2c(=O)[nH]1 [Pemetrexed] (partner 0.2 µM)
# In short: as §1
# [4] = compound: COc1cc2ncn(-c3cc(OCc4ccccc4C(F)(F)F)c(C(N)=O)s3)c2cc1OC + O=C(c1cc(Cc2n[nH]c(=O)c3ccccc23)ccc1F)N1CCN(C(=O)C2CC2)CC1 [Olaparib] (partner 8 µM)
# In short: as §1
Cell Line,relative viability ([1]; first compound 0.05 µM),relative viability ([1]; first compound 0.1581 µM),relative viability ([1]; first compound 0.5 µM),relative viability ([1]; first compound 1.581 µM),relative viability ([1]; first compound 5 µM),relative viability ([2]; first compound 0.05 µM),relative viability ([2]; first compound 0.1581 µM),relative viability ([2]; first compound 0.5 µM),relative viability ([2]; first compound 1.581 µM),relative viability ([2]; first compound 5 µM),relative viability ([3]; first compound 0.05 µM),relative viability ([3]; first compound 0.1581 µM),relative viability ([3]; first compound 0.5 µM),relative viability ([3]; first compound 1.581 µM),relative viability ([3]; first compound 5 µM),relative viability ([4]; first compound 0.05 µM),relative viability ([4]; first compound 0.1581 µM),relative viability ([4]; first compound 0.5 µM),relative viability ([4]; first compound 1.581 µM),relative viability ([4]; first compound 5 µM)
201T,1.12,1.13,1.12,0.902,0.365,1,1.08,0.984,0.475,0.297,0.355,0.319,0.29,0.303,0.192,0.747,0.83,0.871,0.27,0.246
A549,,,,,,0.802,0.753,0.186,0.0572,0.0466,,,,,,0.344,0.215,0.149,0.0485,0.0961
A-427,1.05,1.05,0.752,0.258,0.251,1.01,1.13,1,0.486,0.161,1.05,1.02,0.887,0.257,0.203,0.745,0.802,0.54,0.267,0.169
ABC-1,0.304,0.294,0.281,0.242,0.233,1.25,1.02,0.786,0.316,0.319,,,,,,0.705,0.837,0.64,0.477,0.429
BEN,0.911,0.476,0.801,0.253,0.244,1.18,1,0.81,0.262,0.391,0.702,0.706,0.667,0.515,0.388,1.11,1.01,0.636,0.425,0.359
CAL-12T,0.944,0.821,0.608,0.242,0.199,1.03,0.973,0.513,0.188,0.196,0.706,1.19,0.621,0.212,0.165,0.563,0.676,0.415,0.189,0.188
COR-L23,0.937,0.933,0.689,0.126,0.111,0.85,0.746,0.334,0.0804,0.0944,0.201,0.208,0.166,0.156,0.154,0.307,0.282,0.138,0.0966,0.109
COR-L 105,0.727,0.763,0.529,0.271,0.269,1.13,0.913,0.857,0.34,0.258,0.924,1.24,0.909,0.409,0.418,0.709,0.687,0.595,0.335,0.369
Calu-6,0.805,0.69,0.203,0.116,0.117,0.92,0.67,0.23,0.128,0.112,,,,,,0.541,0.454,0.172,0.086,0.0935
ChaGo-K-1,0.98,0.727,1.03,0.427,0.272,,,,,,0.263,0.251,0.232,0.175,0.153,0.398,0.389,0.312,0.208,0.12
EBC-1,0.454,0.439,0.208,0.139,0.159,0.82,0.682,0.235,0.207,0.194,,,,,,0.622,0.758,0.217,0.154,0.128
EKVX,1.1,0.773,0.991,0.195,0.487,0.889,0.982,0.834,0.21,0.215,0.395,0.302,0.334,0.244,0.242,0.888,0.934,0.631,0.206,0.222
EMC-BAC-2,1.19,1.08,0.925,0.416,0.278,0.804,0.799,0.639,0.403,0.149,0.459,0.446,0.441,0.338,0.311,0.467,0.48,0.359,0.259,0.216
EPLC-272H,1.05,0.82,0.567,0.0851,0.135,0.9,0.869,0.402,0.126,0.129,0.25,0.206,0.104,0.121,0.206,0.177,0.221,0.0762,0.0805,0.146
H3255,0.793,0.746,0.708,0.363,0.242,0.626,0.796,0.444,0.335,0.233,0.556,0.602,0.552,0.332,0.341,0.532,0.534,0.541,0.415,0.332
HARA,1.09,0.986,1.02,0.215,0.0851,0.894,0.764,0.712,0.176,0.0641,0.242,,0.24,0.176,0.126,0.317,,0.261,0.131,0.105
HCC-15,0.99,0.89,0.785,0.142,0.114,0.93,0.749,0.283,0.142,0.1,0.23,0.215,0.174,0.156,0.13,0.566,0.446,0.232,0.131,0.14
HCC-44,0.949,0.874,0.714,0.127,0.107,0.908,0.76,0.503,0.13,0.0819,0.633,0.625,0.685,0.338,0.342,1.06,1.04,0.877,0.39,0.372
HCC-78,0.472,0.496,0.39,0.238,0.227,0.371,0.402,0.289,0.206,0.27,0.967,0.903,0.895,0.939,0.87,0.939,0.927,0.645,0.601,0.468

Cell Line,relative viability ([1]; first compound 0.05 µM),relative viability ([1]; first compound 0.1581 µM),relative viability ([1]; first compound 0.5 µM),relative viability ([1]; first compound 1.581 µM),relative viability ([1]; first compound 5 µM),relative viability ([2]; first compound 0.05 µM),relative viability ([2]; first compound 0.1581 µM),relative viability ([2]; first compound 0.5 µM),relative viability ([2]; first compound 1.581 µM),relative viability ([2]; first compound 5 µM),relative viability ([3]; first compound 0.05 µM),relative viability ([3]; first compound 0.1581 µM),relative viability ([3]; first compound 0.5 µM),relative viability ([3]; first compound 1.581 µM),relative viability ([3]; first compound 5 µM),relative viability ([4]; first compound 0.05 µM),relative viability ([4]; first compound 0.1581 µM),relative viability ([4]; first compound 0.5 µM),relative viability ([4]; first compound 1.581 µM),relative viability ([4]; first compound 5 µM)
HCC-366,1.12,1.04,0.646,0.018,0.0097,0.656,0.246,0.123,0.0134,0.0086,0.166,0.155,0.0748,0.0321,0.0197,0.204,0.273,0.0764,0.0193,0.0147
HCC-827,1.06,0.98,1.02,0.776,0.508,0.887,1.03,0.667,0.286,0.226,0.269,0.304,0.227,0.259,0.263,0.575,0.547,0.452,0.306,0.179
HOP-62,0.977,1.2,0.507,0.178,0.124,1.02,0.837,0.752,0.199,0.116,0.261,0.302,0.265,0.123,0.0991,0.387,0.38,0.302,,0.116
IA-LM,0.747,0.479,0.0694,0.0622,0.0584,0.701,0.493,0.107,0.0655,0.0465,,,,,,0.75,0.602,0.123,0.0768,0.0783
LK-2,,,,,,1.13,0.957,0.575,0.298,0.263,0.386,0.268,0.168,0.115,0.0951,0.681,0.345,0.215,0.16,0.0981
NCI-H358,,,,,,0.852,1,0.386,0.127,0.177,0.196,0.167,0.192,0.102,0.0855,0.552,0.516,0.195,0.0846,0.078
NCI-H522,,,,,,,,,,,0.965,0.842,0.742,0.812,0.377,0.51,0.714,0.621,0.517,0.337
NCI-H727,1.05,0.835,0.583,0.317,0.381,0.545,0.695,0.41,0.282,0.247,,,,,,0.676,0.672,0.68,0.489,0.535
NCI-H1299,0.985,1.01,0.856,0.263,0.675,1.04,0.979,0.788,0.326,0.654,,,,,,0.962,0.921,0.431,0.223,0.19
NCI-H1395,,,,,,1.04,1.11,0.726,0.342,0.375,0.761,0.828,0.663,0.395,0.27,0.441,0.476,0.414,0.326,0.314
NCI-H1563,0.985,1.01,0.807,0.676,0.592,0.953,1.02,0.917,0.745,0.599,0.833,0.654,0.707,0.71,0.365,,,,,
NCI-H1648,,,,,,,,,,,0.855,0.805,0.513,0.243,0.219,0.74,0.596,0.366,0.242,0.261
NCI-H1650,0.222,0.184,0.185,0.175,0.172,,,,,,0.421,0.36,0.333,0.217,0.207,0.757,0.659,0.305,0.114,0.204
NCI-H1703,0.384,0.339,0.172,0.0978,0.173,0.3,0.368,0.271,0.142,0.12,,,,,,0.416,0.616,0.488,0.261,0.066
NCI-H1793,,,,,,0.611,0.745,0.394,0.22,0.191,0.788,1.01,0.276,0.164,0.107,0.216,0.837,0.436,0.177,0.117
NCI-H1944,,,,,,0.871,0.901,0.619,0.173,0.118,0.666,0.635,0.536,0.178,0.0832,0.415,0.445,0.304,0.152,0.122
NCI-H2170,,,,,,0.789,0.799,0.41,0.176,0.18,0.251,0.268,0.26,0.184,0.162,0.566,0.444,0.166,0.168,0.148
NCI-H2342,,,,,,,,,,,0.773,0.782,0.56,0.518,0.655,0.389,0.437,0.407,0.388,0.421
SK-MES-1,,,,,,0.924,0.883,0.639,0.148,0.553,0.903,0.829,0.419,0.195,0.167,0.62,0.526,0.309,0.165,0.186
